Test results: ChEMBL document CHEMBL4665787, “Bifunctional and Unusual Amino Acid β- or γ-Ester Prodrugs of Nucleoside Analogues for Improved Affinity to ATB and Enhanced Metabolic Stability: An Application to Floxuridine” (J Med Chem, 2020)

How the values were obtained:
[1] = Half life of compound in human ZR-75-1 cell homogenate; assay type: ADME, tissue-based
[2] = tested on: MDA-MB-231; assay: Antitumour activity against human MDA-MB-231 cells xenografted in NOD SCID nude mouse assessed as tumour inhibition at 90 mg/kg, iv administered for 20 days measured every 2 day by caliper method relative to control; assay type: functional; details: MDA-MB-231, iv, 480 h, time 20 day
[3] = tested on: thymidine phosphorylase; assay: Half life of compound in thymidine phosphorylase buffer at 300 uM by HPLC analysis; assay type: physicochemical
[4] = molecular target: T1, Sodium- and chloride-dependent neutral and basic amino acid transporter B(0+) (Homo sapiens, UniProt Q9UN76); assay: Substrate activity at SLC6A14 (unknown origin) expressed in Xenopus laevis oocytes assessed as ABT0+ mediated drug uptake at 0.5 mM incubated for 10 mins by HPLC analysis; assay type: ADME, cell-based; details: oocyte, 500 µM
T1 sequence (Q9UN76 whole entry): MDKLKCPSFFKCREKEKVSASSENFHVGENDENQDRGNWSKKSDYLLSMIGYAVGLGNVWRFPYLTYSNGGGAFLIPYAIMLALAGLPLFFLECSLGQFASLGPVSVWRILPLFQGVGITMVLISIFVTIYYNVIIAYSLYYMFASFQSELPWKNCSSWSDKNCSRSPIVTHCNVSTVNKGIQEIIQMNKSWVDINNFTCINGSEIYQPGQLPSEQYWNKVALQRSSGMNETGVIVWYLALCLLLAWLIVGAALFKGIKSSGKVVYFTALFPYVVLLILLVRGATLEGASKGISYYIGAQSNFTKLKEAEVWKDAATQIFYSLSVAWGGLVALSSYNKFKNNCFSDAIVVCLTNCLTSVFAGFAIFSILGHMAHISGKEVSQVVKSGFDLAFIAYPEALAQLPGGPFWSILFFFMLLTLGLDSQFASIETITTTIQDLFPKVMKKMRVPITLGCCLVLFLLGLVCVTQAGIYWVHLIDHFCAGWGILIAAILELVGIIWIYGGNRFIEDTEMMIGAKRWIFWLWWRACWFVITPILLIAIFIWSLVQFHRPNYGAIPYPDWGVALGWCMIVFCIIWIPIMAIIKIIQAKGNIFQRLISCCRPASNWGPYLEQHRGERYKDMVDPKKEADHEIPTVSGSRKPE

[5] = Ratio of AUC (0 to t) in NOD SCID nude mouse plasma xenografted with ZR-75-1 cells to AUC (0 to t) in NOD SCID mouse tumour xenografted with ZR-75-1 cells; assay type: ADME, cell-free, Tumor/Plasma
[6] = Cmax in NOD SCID nude mouse tumour xenografted with ZR-75-1 cells assessed as floxuridine; 5-fluoro-2-deoxyuridine concentration at 90 mg/kg, iv measured up to 24 hrs by HPLC-MS/MS analysis; assay type: ADME, organism-based, Neoplasm; parameters: route intravenous, dose 90 mg/kg, time <=24; details: in vivo
[7] = AUC (0 to t) in NOD SCID nude mouse plasma xenografted with ZR-75-1 cells at 90 mg/kg, iv measured up to 24 hrs by HPLC-MS/MS analysis; assay type: ADME, organism-based; parameters: route intravenous, dose 90 mg/kg, time <=24
[8] = molecular target: T2, Solute carrier family 15 member 1 (Homo sapiens, UniProt P46059); assay: Substrate activity at PEPT1 (unknown origin) expressed in MDCK cells assessed as PEPT1 mediated drug uptake at 0.5 mM incubated for 10 mins by HPLC analysis; assay type: ADME, cell-based; details: 500 µM
T2 sequence (P46059 whole entry): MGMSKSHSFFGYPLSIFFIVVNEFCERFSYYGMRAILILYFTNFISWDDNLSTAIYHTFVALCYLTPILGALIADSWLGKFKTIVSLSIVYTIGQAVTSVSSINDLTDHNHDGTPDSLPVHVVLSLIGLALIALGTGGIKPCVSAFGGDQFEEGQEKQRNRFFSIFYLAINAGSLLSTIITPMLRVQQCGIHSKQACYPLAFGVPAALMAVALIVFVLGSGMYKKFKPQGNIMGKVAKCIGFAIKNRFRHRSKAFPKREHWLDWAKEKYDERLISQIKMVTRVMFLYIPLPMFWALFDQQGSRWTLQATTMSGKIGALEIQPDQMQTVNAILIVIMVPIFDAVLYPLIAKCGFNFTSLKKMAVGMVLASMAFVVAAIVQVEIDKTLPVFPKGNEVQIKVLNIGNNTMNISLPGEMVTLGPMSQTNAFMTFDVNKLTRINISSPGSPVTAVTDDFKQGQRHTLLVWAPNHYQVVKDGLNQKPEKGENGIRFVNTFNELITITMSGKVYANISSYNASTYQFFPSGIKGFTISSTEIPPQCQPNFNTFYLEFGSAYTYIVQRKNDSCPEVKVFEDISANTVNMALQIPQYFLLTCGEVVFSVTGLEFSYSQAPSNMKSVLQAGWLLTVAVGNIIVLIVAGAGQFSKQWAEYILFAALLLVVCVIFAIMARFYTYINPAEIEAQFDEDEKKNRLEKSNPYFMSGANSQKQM

[9] = AUC (0 to t) in NOD SCID nude mouse tumour xenografted with ZR-75-1 cells assessed as floxuridine; 5-fluoro-2-deoxyuridine AUC at 90 mg/kg, iv measured up to 24 hrs by HPLC-MS/MS analysis; assay type: ADME, organism-based, Neoplasm; details: in vivo
[10] = Drug uptake in MDCK cells incubated for 10 mins by HPLC analysis; assay type: ADME, cell-based, Canis lupus familiaris; details: dog, 500 µM, dose 0.5 mM
[11] = Drug uptake in Xenopus laevis oocytes at 0.5 mM incubated for 10 mins by HPLC analysis; assay type: ADME, cell-based; details: oocyte, 500 µM
[12] = Half life of compound in human MDA-MB-231 cell homogenate; assay type: ADME, tissue-based
[13] = tested on: ZR-75-1; assay: Antitumour activity against human ZR-75-1 cells xenografted in NOD SCID nude mouse assessed as tumour inhibition at 90 mg/kg, iv administered for 20 days measured every 2 day by caliper method relative to control; assay type: functional; details: ZR-75-1, iv, 480 h, time 20 day
[14] = Toxicity in NOD SCID nude mouse xenografted with human MIA PaCa-2 cells assessed as body weight at 90 mg/kg, iv for 20 days (reference value: 28.4 +/- 2.1g); assay type: organism-based; details: in vivo, 480 h, time 20 day
[15] = Toxicity in NOD SCID nude mouse xenografted with human ZR-75-1 cells assessed as body weight at 90 mg/kg, iv for 20 days (reference value: 29.2 +/- 2.5g); assay type: organism-based; details: in vivo, 480 h, time 20 day
[16] = Half life of compound in human MIA PaCa-2 cell homogenate; assay type: ADME, tissue-based
[17] = Cmax in NOD SCID nude mouse plasma xenografted with ZR-75-1 cells assessed as fluorouracil at 90 mg/kg, iv measured up to 24 hrs by HPLC-MS/MS analysis; assay type: ADME, organism-based; parameters: route intravenous, dose 90 mg/kg, time <=24; details: in vivo
[18] = Toxicity in NOD SCID nude mouse xenografted with human MDA-MB-231 cells assessed as body weight at 90 mg/kg, iv for 20 days (reference value: 30.1 +/- 4.1g); assay type: organism-based; details: in vivo, 480 h, time 20 day
[19] = Selectivity ratio of substrate activity at PEPT1 (unknown origin) expressed in MDCK cells assessed as PEPT1 mediated drug uptake to drug uptake in MDCK cells
[20] = molecular target: T2, Solute carrier family 15 member 1; assay: Substrate activity at PEPT1 (unknown origin) expressed in MDCK cells assessed as inhibition of gly-sar uptake incubated for 10 mins by HPLC/MS/MS analysis; assay type: cell-based
[21] = Selectivity ratio of substrate activity at SLC6A14 (unknown origin) expressed in Xenopus laevis oocytes assessed as ABT0+ mediated drug uptake to drug uptake in Xenopus laevis oocytes; parameters: species or system Oocyte
[22] = tested on: MIA PaCa-2; assay: Antitumour activity against human MIA-PaCa-2 cells xenografted in NOD SCID nude mouse assessed as tumour inhibition at 90 mg/kg, iv administered for 20 days measured every 2 day by caliper method relative to control; assay type: functional; details: MIA PaCa-2, iv, 480 h, time 20 day
[23] = AUC (0 to t) in NOD SCID nude mouse plasma xenografted with ZR-75-1 cells assessed as fluorouracil AUC at 90 mg/kg, iv measured up to 24 hrs by HPLC-MS/MS analysis; assay type: ADME, organism-based; parameters: route intravenous, dose 90 mg/kg, time <=24; details: in vivo
[24] = compound: N[C@@H](CCC(=O)OC[C@H]1O[C@@H](n2cc(F)c(=O)[nH]c2=O)C[C@@H]1O)C(=O)O; assay: (§1) Substrate activity at SLC6A14 (unknown origin) expressed in Xenopus laevis oocytes assessed as Km by measuring ABT0+ mediated drug uptake incubated for 10 mins in presence of glycine by HPLC based Michaelis-Menten analysis; assay type: cell-based; details: Homo sapiens, Oocyte
[25] = compound: CC(C)[C@H](N)C(=O)OC[C@H]1O[C@@H](n2cc(F)c(=O)[nH]c2=O)C[C@@H]1O; assay: as §1; assay type: cell-based; details: Homo sapiens, Oocyte
[26] = compound: N[C@@H](CC(=O)OC[C@H]1O[C@@H](n2cc(F)c(=O)[nH]c2=O)C[C@@H]1O)C(=O)O; assay: as §1; assay type: cell-based; details: Homo sapiens, Oocyte
[27] = compound: N[C@@H](CCC(=O)OC[C@H]1O[C@@H](n2cc(F)c(=O)[nH]c2=O)C[C@@H]1O)C(=O)O; assay: (§2) Substrate activity at SLC6A14 (unknown origin) expressed in Xenopus laevis oocytes assessed as Vmax by measuring ABT0+ mediated drug uptake incubated for 10 mins in presence of glycine by HPLC based Michaelis-Menten analysis; assay type: cell-based; details: Homo sapiens, Oocyte
[28] = compound: CC(C)[C@H](N)C(=O)OC[C@H]1O[C@@H](n2cc(F)c(=O)[nH]c2=O)C[C@@H]1O; assay: as §2; assay type: cell-based; details: Homo sapiens, Oocyte
[29] = compound: N[C@@H](CC(=O)OC[C@H]1O[C@@H](n2cc(F)c(=O)[nH]c2=O)C[C@@H]1O)C(=O)O; assay: as §2; assay type: cell-based; details: Homo sapiens, Oocyte

O=c1[nH]c(=O)n([C@H]2C[C@H](O)[C@@H](CO)O2)cc1F [FLOXURIDINE]
half-life [1]: 13.2 min | inhibition in vivo at 90 mg/kg [2]: 36.9% | half-life at 300 µM [3]: 10.2 min | Drug uptake [4]: < 0.04 nmol/mg/min | Ratio [5]: 0.5 | Cmax [6]: 374.4 ng/g | AUC(0-t) at 24 h [7]: 3420 ng·h/mL | Drug uptake [8]: < 0.04 nmol/mg/min | AUCt [9]: 1877.1 ng·h/g | Drug uptake [10]: < 0.04 nmol/mg/min | Drug uptake [11]: < 0.04 nmol/mg/min | half-life [12]: 23.1 min | inhibition in vivo at 90 mg/kg [13]: 36.1% | Activity [14]: 24.7 g | Activity [15]: 25.8 g | half-life [16]: 15.6 min | Cmax [17]: 434.1 ng/mL | Activity [18]: 28.4 g | Ratio [19]: 1 | IC50 [20]: 12.2 mM | Ratio [21]: 1 | inhibition in vivo at 90 mg/kg [22]: 41.3% | AUCt [23]: 4107.2 ng·h/mL

B1: Sodium- and chloride-dependent neutral and basic amino acid transporter B(0+) (Homo sapiens), Q9UN76 (protein)
chain: T1 sequence (Q9UN76 whole entry)
Km [24]: 84 µM | Km [25]: 54.6 µM | Km [26]: 35.6 µM | Vmax [27]: 235 pmol/mg/min | Vmax [28]: 278 pmol/mg/min | Vmax [29]: 201 pmol/mg/min
